# Results taken from PubChem BioAssay AID330 (DTP/NCI, 2004).
# Where “and” joins values, the source holds several entries; their conditions need not be identical. Equal entries are not always repeated. Toxic doses and inconclusive results are not listed.
# Tested on: P388 leukemia ip, CD2F1 mice, survival T/C
# Assay: NCI In Vivo Anticancer Drug Screen. Data for tumor model P388 Leukemia (intraperitoneal) in CD2F1 (CDF1) mice
# Details: endpoint: median survival time, higher = longer survival
# Summary of the method: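 Mice carrying the transplanted tumor received test compound or vehicle. Survival was recorded in each group, and the value is the treated-group measurement divided by that of the vehicle-treated control group.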
# [1] = dose: 50.0 mg/kg/injection, schedule: Q01DX009 (ip), vehicle: saline with Tween-80
# [2] = dose: 100.0 mg/kg/injection, schedule: Q01DX009 (ip), vehicle: saline with Tween-80
# [3] = dose: 200.0 mg/kg/injection, schedule: Q01DX009 (ip), vehicle: saline with Tween-80
# [4] = dose: 50.0 mg/kg/injection, schedule: Q01DX009 (ip), vehicle: saline
# [5] = dose: 50.0 mg/kg/injection, schedule: Q01DX005 (ip), vehicle: saline with Tween-80
# [6] = dose: 100.0 mg/kg/injection, schedule: Q01DX005 (ip), vehicle: saline with Tween-80
smiles,measurement,setting,value
O=C1CCC(N2C(=O)CC3(CCCC3)C2=O)C(=O)N1c1ccc([N+](=O)[O-])cc1 (stereo not given),T/C,[1],106 % of control
same,T/C,[2],109 % of control
same,T/C,[3],99 % of control
O=C(O)CCC(=O)OCN1C(=O)C2C3C=CC(C2C1=O)C1C2C(=O)N(COC(=O)CCC(=O)O)C(=O)C2C31 (stereo not given),T/C,"dose: 25.0 mg/kg/injection, schedule: Q01DX009 (ip), vehicle: water",103 % of control and 107 % of control (2×)
same,T/C,"dose: 50.0 mg/kg/injection, schedule: Q01DX009 (ip), vehicle: water",115 % of control and 116 % of control and 122 % of control
same,T/C,"dose: 100.0 mg/kg/injection, schedule: Q01DX009 (ip), vehicle: water",165 % of control and 178 % of control
C#CCOc1ccc(O)c(C(=O)OCCCOC(=O)c2cc(OCC#C)ccc2O)c1,T/C,"dose: 60.0 mg/kg/injection, schedule: Q01DX005 (ip), vehicle: saline with Tween-80",104 % of control
same,T/C,"dose: 120.0 mg/kg/injection, schedule: Q01DX005 (ip), vehicle: saline with Tween-80",98 % of control
same,T/C,"dose: 240.0 mg/kg/injection, schedule: Q01DX005 (ip), vehicle: saline with Tween-80",100 % of control
COc1cccc2c1C(=O)c1c(O)c3c(c(O)c1C2=O)CC(O)CC3OC1CC(N)C(O)C(C)O1 (stereo not given),T/C,"dose: 3.13 mg/kg/injection, schedule: Q01DX009 (ip), vehicle: water",157 % of control
same,T/C,"dose: 6.25 mg/kg/injection, schedule: Q01DX009 (ip), vehicle: water",173 % of control
CC(=O)c1cc[c]([Sn]([CH3])([Cl])[c]2ccccc2)cc1 (stereo not given),T/C,"dose: 7.5 mg/kg/injection, schedule: Q01DX005 (ip), vehicle: Klucel (hydroxypropylcellulose) (HPC)",100 % of control
same,T/C,"dose: 15.0 mg/kg/injection, schedule: Q01DX005 (ip), vehicle: Klucel (hydroxypropylcellulose) (HPC)",107 % of control
same,T/C,"dose: 60.0 mg/kg/injection, schedule: Q01DX005 (ip), vehicle: Klucel (hydroxypropylcellulose) (HPC)",108 % of control
C#CCNC1=C(C)C(=O)C2=C(C1=O)[C@H](COC(N)=O)[C@]1(OC)[C@@H]3N[C@@H]3CN21,T/C,"dose: 12.0 mg/kg/injection, schedule: Q01DX001 (ip), vehicle: distilled water + Tween-80",163 % of control
same,T/C,"dose: 24.0 mg/kg/injection, schedule: Q01DX001 (ip), vehicle: distilled water + Tween-80",173 % of control
same,T/C,"dose: 48.0 mg/kg/injection, schedule: Q01DX001 (ip), vehicle: distilled water + Tween-80",165 % of control and 265 % of control
same,T/C,"dose: 96.0 mg/kg/injection, schedule: Q01DX001 (ip), vehicle: distilled water + Tween-80",203 % of control
CCCC(O)(CCC)C1=NCCN1,T/C,"dose: 12.5 mg/kg/injection, schedule: Q01DX005 (ip), vehicle: saline",103 % of control
same,T/C,"dose: 25.0 mg/kg/injection, schedule: Q01DX005 (ip), vehicle: saline",102 % of control
same,T/C,"dose: 50.0 mg/kg/injection, schedule: Q01DX005 (ip), vehicle: saline",99 % of control and 102 % of control
O=C(O)c1c[nH]c2cc(OCCc3ccccc3)ccc2c1=O,T/C,[4],101 % of control
same,T/C,"dose: 100.0 mg/kg/injection, schedule: Q01DX009 (ip), vehicle: saline",107 % of control
same,T/C,"dose: 200.0 mg/kg/injection, schedule: Q01DX009 (ip), vehicle: saline",107 % of control
CCOC(=O)NC(C(=O)N(C(=O)NC1CCCCC1)C1CCCCC1)C(C)C (stereo not given),T/C,"dose: 50.0 mg/kg/injection, schedule: Q01DX005 (ip), vehicle: Klucel (hydroxypropylcellulose) (HPC)",100 % of control
same,T/C,"dose: 100.0 mg/kg/injection, schedule: Q01DX005 (ip), vehicle: Klucel (hydroxypropylcellulose) (HPC)",95 % of control
same,T/C,"dose: 200.0 mg/kg/injection, schedule: Q01DX005 (ip), vehicle: Klucel (hydroxypropylcellulose) (HPC)",90 % of control
CC(C)OC(=O)C(C)(C)Oc1ccc(C(=O)c2ccc(Cl)cc2)cc1,T/C,[1],111 % of control
same,T/C,[2],98 % of control
same,T/C,[3],97 % of control
Cc1ccc(S(=O)(=O)N(O)c2ccc(C)cc2C)cc1,T/C,[5],112 % of control
same,T/C,[6],107 % of control
CCCN1CCc2cccc3c2C1Cc1ccc(O)c(O)c1-3 (stereo not given),T/C,[1],121 % of control
same,T/C,[4],113 % of control
same,T/C,[3],109 % of control
CCOc1nc(N)nc(C)c1N=Nc1cccc(Cl)c1,T/C,"dose: 60.0 mg/kg/injection, schedule: Q01DX005 (ip), vehicle: Klucel + Tween-80",101 % of control
same,T/C,"dose: 120.0 mg/kg/injection, schedule: Q01DX005 (ip), vehicle: Klucel + Tween-80",107 % of control
same,T/C,"dose: 240.0 mg/kg/injection, schedule: Q01DX005 (ip), vehicle: Klucel + Tween-80",100 % of control
O=C1CC(c2ccc(Cl)cc2)C(c2ccc(Cl)cc2)C1=O (stereo not given),T/C,"dose: 6.25 mg/kg/injection, schedule: Q01DX001 (ip), vehicle: Klucel (hydroxypropylcellulose) (HPC)",107 % of control
same,T/C,"dose: 12.5 mg/kg/injection, schedule: Q01DX001 (ip), vehicle: Klucel (hydroxypropylcellulose) (HPC)",112 % of control
same,T/C,"dose: 25.0 mg/kg/injection, schedule: Q01DX001 (ip), vehicle: Klucel (hydroxypropylcellulose) (HPC)",106 % of control and 86 % of control
same,T/C,"dose: 100.0 mg/kg/injection, schedule: Q01DX001 (ip), vehicle: Klucel (hydroxypropylcellulose) (HPC)",99 % of control
Cc1cccc(N=C(c2ccccc2)C2C(=O)c3ccccc3C2=O)c1,T/C,[5],94 % of control
same,T/C,[6],94 % of control
same,T/C,"dose: 200.0 mg/kg/injection, schedule: Q01DX005 (ip), vehicle: saline with Tween-80",91 % of control
